Target: T1, E. coli gyrase holoenzyme (GyrA and GyrB) (Escherichia coli, UniProt P0AES4+P0AES6)
T1 construct: His-tagged GyrA and GyrB expressed separately in E. coli BL21-CodonPlus(DE3)-RIL, tags cleaved with TEV protease, Ni-NTA and S200 purified; used as holoenzyme
Test: supercoiling, fluorescent cruciform extrusion, NCC screen
Assay type: biochemical
Excerpt: supercoiling, fluorescent cruciform extrusion, NCC screen on E. coli gyrase holoenzyme (GyrA and GyrB)

T1 sequence (P0AES4 whole entry, one chain of several): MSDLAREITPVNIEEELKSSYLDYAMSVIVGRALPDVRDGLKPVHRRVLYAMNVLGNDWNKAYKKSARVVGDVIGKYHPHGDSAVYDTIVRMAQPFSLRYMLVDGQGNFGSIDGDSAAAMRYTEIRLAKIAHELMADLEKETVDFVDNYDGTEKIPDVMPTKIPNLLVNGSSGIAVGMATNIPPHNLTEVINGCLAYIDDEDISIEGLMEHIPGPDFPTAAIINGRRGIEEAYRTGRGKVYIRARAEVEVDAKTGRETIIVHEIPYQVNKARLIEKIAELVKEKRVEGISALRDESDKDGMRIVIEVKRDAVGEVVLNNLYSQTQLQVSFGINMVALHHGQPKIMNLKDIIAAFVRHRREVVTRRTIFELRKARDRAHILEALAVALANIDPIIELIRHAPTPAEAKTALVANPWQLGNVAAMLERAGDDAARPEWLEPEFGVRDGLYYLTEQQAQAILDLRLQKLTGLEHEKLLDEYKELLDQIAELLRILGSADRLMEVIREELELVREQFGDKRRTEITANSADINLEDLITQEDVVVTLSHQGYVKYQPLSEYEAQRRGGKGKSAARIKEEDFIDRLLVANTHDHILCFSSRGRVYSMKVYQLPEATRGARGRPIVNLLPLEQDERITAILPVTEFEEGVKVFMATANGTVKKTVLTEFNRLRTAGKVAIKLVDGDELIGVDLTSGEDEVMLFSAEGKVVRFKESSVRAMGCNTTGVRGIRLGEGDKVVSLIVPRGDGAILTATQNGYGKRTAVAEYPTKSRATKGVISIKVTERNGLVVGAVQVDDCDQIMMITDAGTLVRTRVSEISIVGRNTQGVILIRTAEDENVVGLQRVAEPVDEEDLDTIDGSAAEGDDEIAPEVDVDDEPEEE

SMILES	inhibition at 50 µM [%]
NC1CCN(c2nc3c(cc2F)c(=O)c(C(=O)O)cn3-c2ccc(F)cc2F)C1 (stereo not shown) [Tosufloxacin]	96
CCN1CCN(c2cc3c(cc2F)c(=O)c(C(=O)O)cn3C2CC2)CC1 [Enrofloxacin]	67
CN1CCN(c2c(F)cc3c(=O)c(C(=O)O)cn4c3c2SCC4)CC1 [Rufloxacin]	89
CCn1cc(C(=O)O)c(=O)c2cc(F)c(N3CCN(C)CC3)cc21 [Pefloxacin]	95

Source: paper PMC3711437, “Real-time detection of DNA topological changes with a fluorescently labeled cruciform” (Nucleic Acids Research, 2013)
